Where two headings read alike, the source gives them in different places.
Key:
Test in all cases: Kinome profiler screen
Format in all cases: biochemical
[1] = molecular target: T1, Arg(m) (Mus musculus, UniProt Q4JIM5); details: at 20,000 nM inhibitor; kinase activity remaining
T1 construct: purchased Millipore KinaseProfiler

[2] = molecular target: T2, ASK1 (Homo sapiens, UniProt Q99683); details: at 20,000 nM inhibitor; kinase activity remaining
T2 construct: purchased Millipore KinaseProfiler

[3] = molecular target: T3, CDK2/cyclinA (Homo sapiens, UniProt P24941); details: at 20,000 nM inhibitor; kinase activity remaining
T3 construct: purchased Millipore KinaseProfiler

[4] = molecular target: T4, CDK6/cyclinD3 (Homo sapiens, UniProt Q00534); details: at 20,000 nM inhibitor; kinase activity remaining
T4 construct: purchased Millipore KinaseProfiler

[5] = molecular target: T5, CDK7/cyclinH/MAT1 (Homo sapiens, UniProt P50613); details: at 20,000 nM inhibitor; kinase activity remaining
T5 construct: purchased Millipore KinaseProfiler

[6] = molecular target: T6, CHK1 (Homo sapiens, UniProt O14757); details: at 20,000 nM inhibitor; kinase activity remaining
T6 construct: purchased Millipore KinaseProfiler

[7] = molecular target: T7, cKit(V560G) (Homo sapiens, UniProt P10721, V560G); details: at 20,000 nM inhibitor; kinase activity remaining
T7 construct: purchased Millipore KinaseProfiler

[8] = molecular target: T8, cSRC (Homo sapiens, UniProt P12931); details: at 20,000 nM inhibitor; kinase activity remaining
T8 construct: purchased Millipore KinaseProfiler

[9] = molecular target: T9, EphB1 (Homo sapiens, UniProt P54762)
T9 construct: purchased Millipore KinaseProfiler

[10] = molecular target: T10, EphB3 (Homo sapiens, UniProt P54753); details: at 20,000 nM inhibitor; kinase activity remaining
T10 construct: purchased Millipore KinaseProfiler

[11] = molecular target: T11, FAK (Homo sapiens, UniProt Q05397); details: at 20,000 nM inhibitor; kinase activity remaining
T11 construct: purchased Millipore KinaseProfiler

[12] = molecular target: T12, Fes (Homo sapiens, UniProt P07332); details: at 20,000 nM inhibitor; kinase activity remaining
T12 construct: purchased Millipore KinaseProfiler

[13] = molecular target: T13, FGFR1 (Homo sapiens, UniProt P11362); details: at 20,000 nM inhibitor; kinase activity remaining
T13 construct: purchased Millipore KinaseProfiler

[14] = molecular target: T14, Flt3(D835Y) (Homo sapiens, UniProt P36888, D835Y); details: at 20,000 nM inhibitor; kinase activity remaining
T14 construct: purchased Millipore KinaseProfiler

[15] = molecular target: T15, Fms (Homo sapiens, UniProt P07333); details: at 20,000 nM inhibitor; kinase activity remaining
T15 construct: purchased Millipore KinaseProfiler

[16] = molecular target: T16, Hck (Homo sapiens, UniProt P08631); details: at 20,000 nM inhibitor; kinase activity remaining
T16 construct: purchased Millipore KinaseProfiler

[17] = molecular target: T17, HIPK1 (Homo sapiens, UniProt Q86Z02); details: at 20,000 nM inhibitor; kinase activity remaining
T17 construct: purchased Millipore KinaseProfiler

[18] = molecular target: T18, HIPK2 (Homo sapiens, UniProt Q9H2X6); details: at 20,000 nM inhibitor; kinase activity remaining
T18 construct: purchased Millipore KinaseProfiler

[19] = molecular target: T19, IR, activated (Homo sapiens, UniProt P06213); details: at 20,000 nM inhibitor; kinase activity remaining
T19 construct: purchased Millipore KinaseProfiler

[20] = molecular target: JNK3 (Homo sapiens, UniProt P53779); details: for activity at 20 µM: at 20,000 nM inhibitor, kinase activity remaining
[21] = molecular target: T20, LKB1 (Homo sapiens, UniProt Q15831); details: at 20,000 nM inhibitor; kinase activity remaining
T20 construct: purchased Millipore KinaseProfiler

[22] = molecular target: T21, MAPKAP-K2 (Homo sapiens, UniProt P49137); details: at 20,000 nM inhibitor; kinase activity remaining
T21 construct: purchased Millipore KinaseProfiler

[23] = molecular target: T22, MARK1 (Homo sapiens, UniProt Q9P0L2); details: at 20,000 nM inhibitor; kinase activity remaining
T22 construct: purchased Millipore KinaseProfiler

[24] = molecular target: T23, MELK (Homo sapiens, UniProt Q14680); details: at 20,000 nM inhibitor; kinase activity remaining
T23 construct: purchased Millipore KinaseProfiler

[25] = molecular target: T24, Mer (Homo sapiens, UniProt Q12866); details: at 20,000 nM inhibitor; kinase activity remaining
T24 construct: purchased Millipore KinaseProfiler

[26] = molecular target: T25, MRCKα (Homo sapiens, UniProt Q5VT25); details: at 20,000 nM inhibitor; kinase activity remaining
T25 construct: purchased Millipore KinaseProfiler

[27] = molecular target: T26, NEK2 (Homo sapiens, UniProt P51955); details: at 20,000 nM inhibitor; kinase activity remaining
T26 construct: purchased Millipore KinaseProfiler

[28] = molecular target: T27, NEK3 (Homo sapiens, UniProt P51956); details: at 20,000 nM inhibitor; kinase activity remaining
T27 construct: purchased Millipore KinaseProfiler

[29] = molecular target: T28, PAK5 (Homo sapiens, UniProt Q9P286); details: at 20,000 nM inhibitor; kinase activity remaining
T28 construct: purchased Millipore KinaseProfiler

[30] = molecular target: T29, PAK6 (Homo sapiens, UniProt Q9NQU5); details: at 20,000 nM inhibitor; kinase activity remaining
T29 construct: purchased Millipore KinaseProfiler

[31] = molecular target: T30, PI3 Kinase (p110δ/p85α)(m) (Mus musculus, UniProt O35904); details: at 20,000 nM inhibitor; kinase activity remaining
T30 construct: purchased Millipore KinaseProfiler

[32] = molecular target: T31, Pim-1 (Homo sapiens, UniProt P11309); details: at 20,000 nM inhibitor; kinase activity remaining
T31 construct: purchased Millipore KinaseProfiler

[33] = molecular target: T32, PKCε (Homo sapiens, UniProt Q02156); details: at 20,000 nM inhibitor; kinase activity remaining
T32 construct: purchased Millipore KinaseProfiler

[34] = molecular target: T33, PKD2 (Homo sapiens, UniProt Q9BZL6); details: at 20,000 nM inhibitor; kinase activity remaining
T33 construct: purchased Millipore KinaseProfiler

[35] = molecular target: T34, PRK2 (Homo sapiens, UniProt Q16513); details: at 20,000 nM inhibitor; kinase activity remaining
T34 construct: purchased Millipore KinaseProfiler

[36] = molecular target: T35, ROCK-I (Homo sapiens, UniProt Q13464); details: at 20,000 nM inhibitor; kinase activity remaining
T35 construct: purchased Millipore KinaseProfiler

[37] = molecular target: T36, Rse (Homo sapiens, UniProt Q06418); details: at 20,000 nM inhibitor; kinase activity remaining
T36 construct: purchased Millipore KinaseProfiler

[38] = molecular target: T37, Rsk2 (Homo sapiens, UniProt P51812); details: at 20,000 nM inhibitor; kinase activity remaining
T37 construct: purchased Millipore KinaseProfiler

[39] = molecular target: T38, Rsk4 (Homo sapiens, UniProt Q9UK32); details: at 20,000 nM inhibitor; kinase activity remaining
T38 construct: purchased Millipore KinaseProfiler

[40] = molecular target: T39, SGK (Homo sapiens, UniProt O00141); details: at 20,000 nM inhibitor; kinase activity remaining
T39 construct: purchased Millipore KinaseProfiler

[41] = molecular target: T40, Snk (Homo sapiens, UniProt Q9NYY3); details: at 20,000 nM inhibitor; kinase activity remaining
T40 construct: purchased Millipore KinaseProfiler

[42] = molecular target: T41, TAO2 (Homo sapiens, UniProt Q9UL54); details: at 20,000 nM inhibitor; kinase activity remaining
T41 construct: purchased Millipore KinaseProfiler

[43] = molecular target: T42, Tie2(Y897S) (Homo sapiens, UniProt Q02763, Y897S); details: at 20,000 nM inhibitor; kinase activity remaining
T42 construct: purchased Millipore KinaseProfiler

[44] = molecular target: T43, TSSK1 (Homo sapiens, UniProt Q9BXA7); details: at 20,000 nM inhibitor; kinase activity remaining
T43 construct: purchased Millipore KinaseProfiler

Sequence of JNK3 (P53779 whole entry): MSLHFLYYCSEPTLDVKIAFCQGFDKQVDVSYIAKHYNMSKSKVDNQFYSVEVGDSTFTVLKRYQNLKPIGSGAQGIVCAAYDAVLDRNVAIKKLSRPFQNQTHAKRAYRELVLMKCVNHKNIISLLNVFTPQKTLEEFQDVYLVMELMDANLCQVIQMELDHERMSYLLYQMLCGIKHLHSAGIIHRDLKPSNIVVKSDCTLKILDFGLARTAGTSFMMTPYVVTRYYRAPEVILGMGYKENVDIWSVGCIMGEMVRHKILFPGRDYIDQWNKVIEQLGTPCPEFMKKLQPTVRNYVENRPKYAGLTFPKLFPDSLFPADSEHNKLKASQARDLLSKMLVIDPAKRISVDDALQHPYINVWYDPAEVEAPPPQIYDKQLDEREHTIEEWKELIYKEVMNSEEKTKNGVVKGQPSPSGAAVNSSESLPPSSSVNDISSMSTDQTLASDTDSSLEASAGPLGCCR
T27 sequence (P51956 whole entry): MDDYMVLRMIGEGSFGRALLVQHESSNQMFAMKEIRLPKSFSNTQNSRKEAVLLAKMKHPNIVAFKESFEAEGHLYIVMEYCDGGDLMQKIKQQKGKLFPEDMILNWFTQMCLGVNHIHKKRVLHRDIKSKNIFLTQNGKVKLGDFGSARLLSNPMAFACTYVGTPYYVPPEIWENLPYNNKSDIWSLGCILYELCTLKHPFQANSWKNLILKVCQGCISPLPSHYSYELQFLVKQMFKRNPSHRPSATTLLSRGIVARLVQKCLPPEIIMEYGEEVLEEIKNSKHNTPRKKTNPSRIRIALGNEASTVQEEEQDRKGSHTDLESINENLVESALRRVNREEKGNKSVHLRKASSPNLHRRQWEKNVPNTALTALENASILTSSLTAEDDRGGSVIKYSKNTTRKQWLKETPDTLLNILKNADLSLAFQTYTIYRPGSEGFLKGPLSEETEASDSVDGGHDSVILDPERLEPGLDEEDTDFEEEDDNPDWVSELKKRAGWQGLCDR
T1 sequence (Q4JIM5 2-1182 limits assumed): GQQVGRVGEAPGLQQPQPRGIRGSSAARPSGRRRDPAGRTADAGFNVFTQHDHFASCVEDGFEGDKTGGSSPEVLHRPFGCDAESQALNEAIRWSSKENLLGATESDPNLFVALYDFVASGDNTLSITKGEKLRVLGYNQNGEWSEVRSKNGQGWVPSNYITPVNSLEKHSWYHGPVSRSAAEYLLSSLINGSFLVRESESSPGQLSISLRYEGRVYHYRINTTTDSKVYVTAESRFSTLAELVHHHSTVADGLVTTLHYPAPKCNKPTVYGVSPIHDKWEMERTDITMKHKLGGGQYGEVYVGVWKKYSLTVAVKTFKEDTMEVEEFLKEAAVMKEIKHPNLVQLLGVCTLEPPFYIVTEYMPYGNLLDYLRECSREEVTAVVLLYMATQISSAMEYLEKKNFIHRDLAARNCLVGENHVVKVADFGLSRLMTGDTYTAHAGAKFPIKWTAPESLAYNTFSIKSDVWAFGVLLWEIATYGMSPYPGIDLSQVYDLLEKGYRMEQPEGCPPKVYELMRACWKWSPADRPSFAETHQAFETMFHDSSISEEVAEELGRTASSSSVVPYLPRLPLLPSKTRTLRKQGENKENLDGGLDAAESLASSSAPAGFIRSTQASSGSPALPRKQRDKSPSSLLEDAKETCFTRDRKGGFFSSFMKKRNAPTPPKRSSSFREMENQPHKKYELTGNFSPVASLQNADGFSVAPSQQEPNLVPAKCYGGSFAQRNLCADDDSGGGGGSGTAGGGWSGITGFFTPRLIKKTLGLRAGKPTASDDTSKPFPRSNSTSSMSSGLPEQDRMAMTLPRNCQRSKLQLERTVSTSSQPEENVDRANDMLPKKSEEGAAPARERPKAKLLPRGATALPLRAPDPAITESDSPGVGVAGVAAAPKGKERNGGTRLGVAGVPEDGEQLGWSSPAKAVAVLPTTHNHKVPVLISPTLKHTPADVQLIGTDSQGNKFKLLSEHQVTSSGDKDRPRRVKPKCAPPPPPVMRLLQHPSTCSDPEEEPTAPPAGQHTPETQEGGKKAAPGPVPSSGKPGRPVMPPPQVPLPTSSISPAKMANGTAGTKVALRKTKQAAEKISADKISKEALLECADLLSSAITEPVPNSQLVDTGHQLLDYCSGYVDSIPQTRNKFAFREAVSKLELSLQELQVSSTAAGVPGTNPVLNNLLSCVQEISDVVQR
T23 sequence (Q14680 whole entry): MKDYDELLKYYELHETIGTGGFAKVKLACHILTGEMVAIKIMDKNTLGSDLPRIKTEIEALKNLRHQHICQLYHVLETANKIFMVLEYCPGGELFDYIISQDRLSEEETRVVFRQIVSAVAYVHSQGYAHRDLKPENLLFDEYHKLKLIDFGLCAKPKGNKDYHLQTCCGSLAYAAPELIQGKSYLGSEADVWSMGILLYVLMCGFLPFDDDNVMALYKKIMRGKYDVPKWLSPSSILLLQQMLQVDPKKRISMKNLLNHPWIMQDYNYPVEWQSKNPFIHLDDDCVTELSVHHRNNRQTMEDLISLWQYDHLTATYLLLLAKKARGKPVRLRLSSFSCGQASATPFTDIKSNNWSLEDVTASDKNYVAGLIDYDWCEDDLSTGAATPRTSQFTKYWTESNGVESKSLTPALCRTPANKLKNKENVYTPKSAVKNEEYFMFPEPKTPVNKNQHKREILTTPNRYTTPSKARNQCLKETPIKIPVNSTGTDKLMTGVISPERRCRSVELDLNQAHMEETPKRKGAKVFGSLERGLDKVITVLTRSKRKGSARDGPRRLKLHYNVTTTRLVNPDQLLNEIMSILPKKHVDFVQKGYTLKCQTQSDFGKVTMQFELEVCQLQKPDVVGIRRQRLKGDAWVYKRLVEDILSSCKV
T38 sequence (Q9UK32 whole entry): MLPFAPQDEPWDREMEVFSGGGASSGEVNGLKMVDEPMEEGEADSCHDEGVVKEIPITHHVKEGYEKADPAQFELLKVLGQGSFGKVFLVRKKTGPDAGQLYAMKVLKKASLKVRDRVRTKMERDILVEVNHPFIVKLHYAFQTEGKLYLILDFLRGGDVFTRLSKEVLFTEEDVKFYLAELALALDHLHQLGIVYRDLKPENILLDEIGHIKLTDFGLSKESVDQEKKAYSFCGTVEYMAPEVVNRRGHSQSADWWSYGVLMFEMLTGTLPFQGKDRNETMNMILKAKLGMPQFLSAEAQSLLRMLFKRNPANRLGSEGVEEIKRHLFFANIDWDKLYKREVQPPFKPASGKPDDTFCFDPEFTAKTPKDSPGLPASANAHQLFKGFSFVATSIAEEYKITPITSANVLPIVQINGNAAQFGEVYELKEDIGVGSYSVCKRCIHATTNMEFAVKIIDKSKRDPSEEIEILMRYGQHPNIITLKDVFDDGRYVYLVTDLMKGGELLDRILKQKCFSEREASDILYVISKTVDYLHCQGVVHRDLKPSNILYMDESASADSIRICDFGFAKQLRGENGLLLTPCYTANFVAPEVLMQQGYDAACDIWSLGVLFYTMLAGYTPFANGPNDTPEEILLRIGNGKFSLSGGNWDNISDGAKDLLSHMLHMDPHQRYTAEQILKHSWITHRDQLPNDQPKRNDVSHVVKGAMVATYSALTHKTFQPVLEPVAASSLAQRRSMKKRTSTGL
T12 sequence (P07332 whole entry): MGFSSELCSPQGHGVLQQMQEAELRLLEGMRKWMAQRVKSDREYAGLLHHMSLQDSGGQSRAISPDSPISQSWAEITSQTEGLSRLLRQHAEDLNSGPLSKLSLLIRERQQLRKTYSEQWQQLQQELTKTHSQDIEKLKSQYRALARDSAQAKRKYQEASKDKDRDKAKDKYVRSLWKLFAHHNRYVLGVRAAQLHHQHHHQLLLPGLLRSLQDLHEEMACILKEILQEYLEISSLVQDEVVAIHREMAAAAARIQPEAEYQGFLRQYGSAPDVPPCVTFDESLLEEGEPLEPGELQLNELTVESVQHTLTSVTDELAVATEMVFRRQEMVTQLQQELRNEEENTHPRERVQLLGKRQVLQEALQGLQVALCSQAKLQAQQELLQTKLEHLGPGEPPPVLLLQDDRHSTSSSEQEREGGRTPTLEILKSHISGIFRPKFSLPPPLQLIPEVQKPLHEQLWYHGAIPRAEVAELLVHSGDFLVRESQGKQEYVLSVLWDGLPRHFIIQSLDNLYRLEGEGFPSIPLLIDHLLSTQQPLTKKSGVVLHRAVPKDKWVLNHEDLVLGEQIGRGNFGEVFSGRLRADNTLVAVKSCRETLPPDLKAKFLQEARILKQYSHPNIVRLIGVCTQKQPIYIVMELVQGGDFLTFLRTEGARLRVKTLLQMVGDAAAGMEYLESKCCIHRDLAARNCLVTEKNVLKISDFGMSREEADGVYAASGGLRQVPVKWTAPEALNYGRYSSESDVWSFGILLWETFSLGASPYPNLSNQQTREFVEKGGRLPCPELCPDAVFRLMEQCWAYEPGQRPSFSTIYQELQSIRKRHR
T29 sequence (Q9NQU5 whole entry): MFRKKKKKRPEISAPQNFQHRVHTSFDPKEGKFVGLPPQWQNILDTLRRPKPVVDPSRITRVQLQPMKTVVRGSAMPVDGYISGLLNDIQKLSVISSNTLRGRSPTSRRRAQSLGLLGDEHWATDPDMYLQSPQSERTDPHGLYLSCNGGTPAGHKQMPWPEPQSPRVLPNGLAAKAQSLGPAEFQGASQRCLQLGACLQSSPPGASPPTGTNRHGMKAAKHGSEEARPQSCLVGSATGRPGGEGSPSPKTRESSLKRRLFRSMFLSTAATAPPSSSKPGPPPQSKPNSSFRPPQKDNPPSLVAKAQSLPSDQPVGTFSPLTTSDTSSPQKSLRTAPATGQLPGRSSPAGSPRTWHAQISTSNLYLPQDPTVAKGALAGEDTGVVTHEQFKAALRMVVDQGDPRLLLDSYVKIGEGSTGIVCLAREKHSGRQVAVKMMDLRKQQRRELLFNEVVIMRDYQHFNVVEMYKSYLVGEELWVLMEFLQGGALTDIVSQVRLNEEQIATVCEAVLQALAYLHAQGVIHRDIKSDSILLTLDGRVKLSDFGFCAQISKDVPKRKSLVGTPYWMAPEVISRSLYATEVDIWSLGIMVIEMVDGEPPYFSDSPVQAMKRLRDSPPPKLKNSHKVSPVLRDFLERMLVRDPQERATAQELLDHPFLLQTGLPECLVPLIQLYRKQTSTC

For CN(C)c1cc(-c2ccncc2)c(-c2cccc3ccccc23)nn1 [MW181, N,N-dimethyl-6-(naphthalen-1-yl)-5-(pyridin-4-yl)pyridazin-3-amine], the activity at 20 µM [1] was 96%, the activity at 20 µM [2] was 109% and the activity at 20 µM [3] was 92%. It also gave an activity at 20 µM [4] of 103%, an activity at 20 µM [5] of 99% and an activity at 20 µM [6] of 115%. For the same compound, the activity at 20 µM [7] was 71%, the activity at 20 µM [8] was 101% and the activity at 20 µM ([9]; at 20,000 nM inhibitor, kinase activity remaining, read-out: % Activity) was 100%. The activity at 20 µM [10] was 102%, the activity at 20 µM [11] was 102% and the activity at 20 µM [12] was 100%. For the same compound, the activity at 20 µM [13] was 103%, the activity at 20 µM [14] was 100% and the activity at 20 µM [15] was 85%. The activity at 20 µM [16] was 84%, the activity at 20 µM [17] was 107% and the activity at 20 µM [18] was 102%. It also gave an activity at 20 µM [19] of 100%, an activity at 20 µM [20] of 12% and an IC50 ([20]; concentration-dependent follow-up of profiler hit, read-out: IC50) of 2.4 µM. The activity at 20 µM [21] was 100%, the activity at 20 µM [22] was 103% and the activity at 20 µM [23] was 102%. It also gave an activity at 20 µM [24] of 91%, an activity at 20 µM [25] of 100% and an activity at 20 µM [26] of 103%. For the same compound, the activity at 20 µM [27] was 94%, the activity at 20 µM [28] was 116% and the activity at 20 µM [29] was 104%. It also gave an activity at 20 µM [30] of 101%, an activity at 20 µM [31] of 101% and an activity at 20 µM [32] of 107%. For the same compound, the activity at 20 µM [33] was 98%, the activity at 20 µM [34] was 78% and the activity at 20 µM [35] was 96%. The activity at 20 µM [36] was 97%, the activity at 20 µM [37] was 109% and the activity at 20 µM [38] was 90%. It also gave an activity at 20 µM [39] of 105%, an activity at 20 µM [40] of 88% and an activity at 20 µM [41] of 99%. The activity at 20 µM [42] was 94%, the activity at 20 µM [43] was 95% and the activity at 20 µM [44] was 88%.
With CN(C)c1cc(-c2ccncc2)c(-c2ccc3ccccc3c2)nn1 [MW108, N, N-dimethyl-6-(naphthalen-2-yl)-5-(pyridin-4-yl)pyridazin-3-amine] the activity at 20 µM [1] was 86%, the activity at 20 µM [2] was 103% and the activity at 20 µM [3] was 79%. It also gave an activity at 20 µM [4] of 85%, an activity at 20 µM [5] of 98% and an activity at 20 µM [6] of 94%. It also gave an activity at 20 µM [7] of 95%, an activity at 20 µM [8] of 125% and an activity at 20 µM [9] of 92%. The activity at 20 µM [10] was 96%, the activity at 20 µM [11] was 95% and the activity at 20 µM [12] was 111%. For the same compound, the activity at 20 µM [13] was 93%, the activity at 20 µM [14] was 90% and the activity at 20 µM [15] was 98%. The activity at 20 µM [16] was 93%, the activity at 20 µM [17] was 98% and the activity at 20 µM [18] was 107%. For the same compound, the activity at 20 µM [19] was 103%, the IC50 [20] was 1.26 µM and the activity at 20 µM [20] was 5%. It also gave an activity at 20 µM [21] of 102%, an activity at 20 µM [22] of 103% and an activity at 20 µM [23] of 113%. The activity at 20 µM [24] was 90%, the activity at 20 µM [25] was 98% and the activity at 20 µM [26] was 107%. It also gave an activity at 20 µM [27] of 96%, an activity at 20 µM [28] of 98% and an activity at 20 µM [29] of 102%. For the same compound, the activity at 20 µM [30] was 99%, the activity at 20 µM [31] was 100% and the activity at 20 µM [32] was 103%. The activity at 20 µM [33] was 90%, the activity at 20 µM [34] was 78% and the activity at 20 µM [35] was 103%. The activity at 20 µM [36] was 89%, the activity at 20 µM [37] was 117% and the activity at 20 µM [38] was 92%. It also gave an activity at 20 µM [39] of 96%, an activity at 20 µM [40] of 88% and an activity at 20 µM [41] of 98%. The activity at 20 µM [42] was 81%, the activity at 20 µM [43] was 95% and the activity at 20 µM [44] was 101%.
